Patent US20240299328A1, “COMPOSITIONS COMPRISING 15-HEPE AND METHODS OF TREATING AND/OR PREVENTING HEMATOLOGIC DISORDERS AND RELATED DISEASES” (Afimmune Limited, priority 2023, published 2024)

Assays:
[1] = tested on: TGF-β signaling in HepG2 cells; test: TGF-β-induced EMT protein expression and type II TGF-β receptor in HepG2 cells; format: cell-based, human; details: liver cell lines (HepG2, LX2)
Protocol: The effects of 15-HEPE on TGF-β-induced signaling and cellular responses were determined. To test the effect of 15-HEPE on TGF-β-induced signaling, the activities of 15-HEPE to regulate TGF-β-stimulated Smad2 phosphorylation and nuclear translocation, both of which are key signaling events leading to TGF-β-induced cellular responses, were tested. One important biological activity of TGF-β is transcriptional activation of genes responsible for epithelial-mesenchymal transition (EMT), which is a crucial event in wound healing, tissue fibrosis, and cancer progression. The effect of 15-HEPE on TGFβ-induced epithelial mesenchymal transition related proteins (such as fibronectin, PAI-1, and N-cadherin etc.) expression in HepG2 and LXR cells were assessed. HepG2 cells (human hepatoma cell line) were treated in increasing doses of 15-HEPE stage II in DMEM containing 0.1% of FBS for 1 hour and continually stimulated with or without 200 picomolar (pM) of TGF-β for 48 hours. […] HepG2 cells (human hepatoma cell line) were treated in increasing doses of 15-HEPE stage II in DMEM containing 0.1% of FBS for 1 hour and continually stimulated with or without 200 picomolar (pM) of TGF-β for 48 hours. The two panels shown in FIG. 18A are two separate experiments run under the same experimental conditions.

NAFLD patients = test: Phase IIa NAFLD study: OWL liver care diagnostic test; format: in vivo, human; details: for Change in Diagnosis (Week 16 vs. baseline): Improvement / Change in Diagnosis (Week 16 vs. baseline): Stable / Change in Diagnosis (Week 16 vs. baseline): Worsening: number of patients
Excerpt: OWL Liver Care is a test that was developed based on the plasma lipidomics in biopsy-confirmed NASH patients and provides high predictive values. OWL Liver Care has an area under the curve (AUC) of 0.88 for distinguishing NAFLD and normal liver patients and an AUC of 0.79 for distinguishing NAFLD without steatohepatitis and NASH patients.

[2] = tested on: humanized sickle cell (SS) mice; test: Humanized SCD (SS) mice under normoxia, 6 weeks treatment; format: in vivo; details: 1000 mg/Kg/d for 6 weeks
Protocol: Animals and design of the study: Experiments were performed on 4-5 months-old sex matched healthy control (Hba^tm1(HBA) Tow Hbb^tm3(HBG1, HBB) Tow) and SCD (Hba^tm1(HBA)Tow Hbb^tm2(HBG1.HBB*)Tow) mice. The study used 4-5 months-old mice. The sickle cell related organ damage is not so severe to generate confounding factors when the impact of H/R induced stress is evaluated. This is also corroborated by the observation of Kasztan M et al who show gender-related differences in kidney function of humanized SCD mice becoming significant after 24 weeks (6 months) of age. The size of the mouse groups was established based on studies with the same mouse model for SCD generated by us and other labs. Mice were randomly assigned to the different treatment groups and analysis. Healthy and SS mice were treated with ether vehicle (hydroxypropyl methyl cellulose, HPMC, 0.5%) or Epeleuton in HPMC 0.5% (1000 mg/kg/day) administrated by gavage for 6 weeks. […] When indicated, mice underwent a hypoxia/reoxygenation stress (H/R): 10 hours hypoxia (8% oxygen) followed by 3 hours reoxygenation (21% oxygen) to mimic acute vaso-occlusive crisis as previously described. Whole blood and organs were collected from each mouse under isoflurane anesthesia. Organs were immediately removed and divided into two portions which were either immediately frozen in liquid nitrogen or fixed in 10% formalin and embedded in paraffin for histology. Hematological parameters were evaluated with a Sysmex XN-1000 Hematology Analyzer and red cell morphology was evaluated as previously reported. Biochemical assays were performed using standard biochemical assays, as previously reported. Plasmatic Pentraxin 2 and CCL-2 and CXCL-2 were measured respectively using the Mouse Pentraxin 2/SAP Quantikine ELISA Kit and the next generation ELISA kit according to the manufacturer's instruction.
Immunoblot analysis: Packed red cells were lysed in ice-cold phosphate lysis buffer (5 mM Na2HPO4, pH 8.0, containing protease inhibitor cocktail tablets, 3 mM benzamidine final concentration, 1 mM Na3VO4 final concentration) and centrifuged 10 min at 4° C. at 12,000 g. Red cell membrane (ghost) and cytosol fractions were obtained as previously reported. Frozen lung, kidney and aorta from each studied group were homogenized and lysed with iced lyses buffer (150 mM NaCl, 25 mM bicine, 0.1% SDS, 2% Triton X-100, 1 mM EDTA, protease inhibitor cocktail tablets, 1 mM Na3VO4 final concentration) then centrifuged 30 min at 4° C. at 12,000 g. Specific antibodies used are: anti Phospho-Tyrosine (clone PY99 from SCBT, Santa Cruz, CA (dilution 1:3000, 75 μg loaded) and clone 4G10 from Merck KGaA, Darmstadt, Germany (dilution 1:1600, 75 μgr loaded)); anti Phospho (Ser536) NF-kB p65 (dilution 1:1000, 75 μg loaded) and anti NF-kB p65 (clone C22B4) (dilution 1:1000, 75 μgr loaded) from Cell Signaling Technology (Danvers, MA, USA); anti-NLRP3/NALP3 from Vinci-Biochem Srl, Vinci, Italy (dilution 1:1000, 75 μgr loaded); anti Endothelin-1 (ET-1) form AbCam, Cambridge, UK (dilution 1:1000, 75 μgr loaded); anti VCAM-1 (R and D Systems, Minneapolis, MN, USA (dilution 1:1000, 40 μgr loaded)); anti ICAM-1 (clone EP1442Y, dilution 1:1000, 75 μgr loaded, AbCam, Cambridge, UK); anti TXAS-1 (Cayman, Ann Arbor, MI, USA); anti Nrf2-phospho-S40 (Clone EP1809Y, dilution 1:1000, 75 μgr loaded, AbCam, Cambridge, UK); anti-Nrf2 (dilution 1:1000, 75 μgr loaded, AbCam, Cambridge, UK); anti Nqo1 from Santa Cruz Biotechnology, Inc, CA, USA (clone C-19; dilution 1:1000, 75 μgr/μl loaded); anti-heme oxygenase 1(HO-1) form SCBT (Santa Cruz, CA, USA (dilution 1:1000, 50 μgr loaded); E-selectin (H-300) (dilution 1:1000, 75 μgr loaded); anti GAPDH from SCBT (Santa Cruz, CA, USA (dilution 1:5000, 50 μgr loaded)); anti Actin from SCBT (Santa Cruz, CA, USA (clone 2A3, dilution 1:1000, 50 μgr/loaded)). […]

[3] = 1 g DS102 arm, OWL baseline diagnosis NASH
[4] = 1 g DS102 arm, OWL baseline diagnosis No NAFLD
[5] = 1 g DS102 arm, OWL baseline diagnosis Steatosis
[6] = 2 g DS102 arm, OWL baseline diagnosis NASH
[7] = 2 g DS102 arm, OWL baseline diagnosis No NAFLD
[8] = 2 g DS102 arm, OWL baseline diagnosis Steatosis

`CC/C=C\C[C@H](O)/C=C/C=C\C/C=C\C/C=C\CCCC(=O)OCC` [DS102, 15(S)-hydroxy-(5Z,8Z,11Z,13E,17Z)-eicosapentaenoic acid ethyl ester] was tested, and the TGF-β signaling [1] was “directly inhibit”, the “Change in Diagnosis (Week 16 vs. baseline): Improvement” value (from here on “Change in Diagnosis … Improvement”) (NAFLD patients; [3]) was 5 and the “Change in Diagnosis (Week 16 vs. baseline): Stable” value (from here on “Change in Diagnosis … Stable”) (NAFLD patients; [3]) was 14. The “Change in Diagnosis … Stable” value (NAFLD patients; [4]) was 3, the “Change in Diagnosis (Week 16 vs. baseline): Worsening” value (“Change in Diagnosis … Worsening” below) (NAFLD patients; [4]) was 1 and the “Change in Diagnosis … Stable” value (NAFLD patients; [5]) was 2. The “Change in Diagnosis … Worsening” value (NAFLD patients; [5]) was 3, the “Change in Diagnosis … Improvement” value (NAFLD patients; [6]) was 5 and the “Change in Diagnosis … Stable” value (NAFLD patients; [6]) was 7. The “Change in Diagnosis … Stable” value (NAFLD patients; [7]) was 2*, **, the “Change in Diagnosis … Worsening” value (NAFLD patients; [7]) was 1 and the “Change in Diagnosis … Improvement” value (NAFLD patients; [8]) was 1. For the same compound, the “Change in Diagnosis … Stable” value (NAFLD patients; [8]) was 9, the “Change in Diagnosis … Worsening” value (NAFLD patients; [8]) was 4 and the “OWL liver care diagnosed NASH” value (NAFLD patients; NAFLD patients, dose dependent, vs placebo at Week 16) was “significantly improved and normalized”. The “tolerability and body weight” value [2] was “well tolerated without major changes in body weight”, the ALT ([2]; normoxia) was “significant reduction” and the AST ([2]; normoxia) was “no change”. For the same compound, the CRP ([2]; normoxia) was “significant reduction”, the circulating neutrophils ([2]; normoxia) was “significant reduction” and the “expression of VCAM-1, ICAM1 and endothelin-1 (ET-1) in lungs, kidneys, livers” value ([2]; normoxia) was “significantly reduction”. For the same compound, the liver protein oxidation ([2]; normoxia) was “marked reduction”, the pentraxin-2 ([2]; normoxia) was “trend toward a reduction” and the “plasma CCL2/MCP1” value ([2]; normoxia) was “lower”. The BUN ([2]; normoxia, vs vehicle) was “no change”, the “activation of NF-kB in lungs, kidneys, and livers” value ([2]; normoxia, vs vehicle) was “significantly reduced” and the “expression of ICAM-1 and ET-1 in isolated aortas” value ([2]; normoxia, vs vehicle) was “significantly down-regulated”. The serum creatinine ([2]; normoxia, vs vehicle) was “trend toward a reduction” and the “hematocrit or reticulocyte counts” value ([2]; normoxic conditions) was “no significant changes”.
